Measurements from paper PMC11611271, “Rapid prediction of key residues for foldability by machine learning model enables the design of highly functional libraries with hyperstable constrained peptide scaffolds” (PLOS Computational Biology, 2024).
Where a SMILES comes first, the peptide text is derived from it. Bridges are numbered along the chain shown (N, C = ends).

Tests used:
[1] = tested on: VEGF; experiment: phage spot ELISA on VEGF; format: binding; settings: for S/N: phage spot ELISA signal/noise; for S/N / ELISA: S3 Table sheet VEGF; for ELISA: phage spot ELISA signal
Excerpt: (§1) To determine the performance of the libraries for ligand discovery we chose a panel of eight protein targets, which have no structural homology and a wide mass range (Fig 7C). We screened these eight targets with solution panning strategy and two additional plate panning for CD8α/β and CD28, thus ten panning campaigns in total. We consider clones showing spot phage ELISA signal > 0.3 and signal/noise ratio > 2 as positive hits. At least one binding hit was discovered for nine out of the ten panning campaigns, surpassing the success rate of the best DCP scaffolds reported previously. We also obtained the NGS data for these screening and the ranking of clones for their enrichment along the rounds of screening was analyzed and considered the top-ranking clones as potential hits. Based on their sequence diversity we selected 16 potential hits spanning five protein targets for peptide synthesis in their linear form. Seven of these are hits with positive phage ELISA signal and nine were selected based on NGS ranking without spot ELISA available. Subsequently, we conducted in vitro folding experiments on these peptides in various buffers. We observed a strong propensity for spontaneous folding regardless of the buffer condition. All HCP hits tested successfully folded into three-disulfide-containing product within two days in a universal buffer system (PBS, pH 7.4, 50% DMSO) without the need for a redox pair, as shown in Fig 8A. The binding of these folded peptides to their respective target proteins was confirmed using SPR (Table 4 and S1 Data) and binding kinetics are exemplified by the high-affinity peptide 5ji4-CRD7-2 (see Fig 8B). Among seven selected ELISA-positive hits, all of them were successfully synthesized and in vitro folded with three disulfide bonds and five were proven to be validated binders by SPR (Table 4). Nine peptides selected from the NGS ranking were synthesized and folded with the expected number of disulfide bonds and five of them bound to their target with affinities in the μM range as determined by SPR (Table 4). In general, binding affinities for these SPR-validated initial hits are weak, with Kd values in the micromolar range and fast on- and off-rates. There are two exceptions with binding affinities in the nanomolar range.
(§2) The 5ji4 libraries were constructed following the Kunkel mutagenesis method and the solution panning protocol was followed as previously described. After four to five rounds of binding selection, while eluted pool was subjected to NGS analysis, individual phage clones were also picked and analyzed with phage spot ELISA. Positive clones were subjected to SANGER sequencing.

[2] = tested on: CD28; experiment: phage spot ELISA on CD28; format: binding; settings: S3 Table sheet CD28-1 (panning campaign 1); for S/N: phage spot ELISA signal/noise; for ELISA: phage spot ELISA signal
Excerpt: as §1, §2

Compound: CC(C)C[C@@H]1NC(=O)[C@H](CCCNC(=N)N)NC(=O)[C@H](CCCCN)NC(=O)[C@@H]2CSSC[C@H](NC(=O)[C@H](CCC(=O)O)NC(=O)[C@@H](NC(=O)[C@@H]3CCCN3)CSSC[C@@H](C(=O)NCC(=O)O)NC(=O)[C@H](Cc3c[nH]cn3)NC(=O)[C@H](C(C)C)NC(=O)[C@H](CCCNC(=N)N)NC(=O)[C@@H]3CSSC[C@H](NC1=O)C(=O)N[C@@H](Cc1c[nH]c4ccccc14)C(=O)NCC(=O)N[C@@H](Cc1ccccc1)C(=O)NCC(=O)N[C@@H](CCC(N)=O)C(=O)N[C@@H](CO)C(=O)N[C@@H](CC(=O)O)C(=O)N3)C(=O)N[C@@H](CC(=O)O)C(=O)N[C@@H](C(C)C)C(=O)N[C@@H](CC(N)=O)C(=O)N[C@@H](C(C)C)C(=O)N[C@@H](CCC(=O)O)C(=O)N[C@@H]([C@@H](C)O)C(=O)N[C@@H](Cc1ccc(O)cc1)C(=O)N[C@@H]([C@@H](C)O)C(=O)N[C@@H](C(C)C)C(=O)N[C@@H](CO)C(=O)N[C@@H](CO)C(=O)N[C@@H](CO)C(=O)N[C@@H](CCC(=O)O)C(=O)N[C@@H](CCC(=O)O)C(=O)N2 [5ji4-VEGF-3] (H-PCECDVNVETYTVSSSEECKRLCWGFGQSDCRVHCG-OH; disulfide 2-35, 4-19, 23-31)
- ELISA signal ([1]; phage spot ELISA of the clone, positive hit: signal > 0.3 and signal/noise > 2): 3.07
- ELISA s/n ([1]; phage spot ELISA signal/noise ratio): 32.18

Compound: LECSHLQMFVIYNSSEECERLCRKLGVTSCRVHCG [CD28-1 clone 10, phage clone, 5JI4 library, CD28-1 panning]
- S/N [2]: 2.405
- ELISA [2]: 0.202

Compound: PANAVIRTWIIFASSEECERLCRKLGVTNCRVHCG [CD28-1 clone 5, phage clone, 5JI4 library, CD28-1 panning]
- S/N [2]: 3.189
- ELISA [2]: 0.3

Compound: PCECDHMQYFILYESSEECERLCRKLGVTNCRVHCG [CD28-1 clone 7, phage clone, 5JI4 library, CD28-1 panning]
- S/N [2]: 2.516
- ELISA [2]: 0.234

Compound: PCECDVNGETYTVSSSEECERPCSWNEAFSCRVHCG [CD28-1 clone 15, phage clone, 5JI4 library, CD28-1 panning]
- S/N [2]: 2.576
- ELISA [2]: 0.219

Compound: PCECDVNGETYTVSSSEGCERLCSWDQGKWCRVHCG [CD28-1 clone 13, phage clone, 5JI4 library, CD28-1 panning]
- S/N [2]: 2.33
- ELISA [2]: 0.247

Compound: PCECDVNGETYTVSSSEGCERLCSWDTRRMCRVHCG [CD28-1 clone 14, phage clone, 5JI4 library, CD28-1 panning]
- S/N [2]: 2.852
- ELISA [2]: 0.231

Compound: PCECDVNVETYTVSSSEECKRLCWGFGQSDCRVHCG [VEGF clone 26, phage clone, 5JI4 library, VEGF panning]
- S/N [1]: 30.2373
- ELISA [1]: 3.568

Compound: PCECFFNAVKVGWSSSEECERLCRKLGVTNCRVHCG [VEGF clone 13, phage clone, 5JI4 library, VEGF panning]
- S/N [1]: 35.8857
- ELISA [1]: 3.768

Compound: PCECFILGMAVGQSSSEECERLCRKLGVTNCRVHCG [VEGF clone 23, phage clone, 5JI4 library, VEGF panning]
- S/N [1]: 29.8545
- ELISA [1]: 3.284

Compound: PCECFMMEVKVGTGSSEECERLCRKLGVTNCRVHCG [VEGF clone 14, phage clone, 5JI4 library, VEGF panning]
- S/N [1]: 42.5632
- ELISA [1]: 3.703

Compound: PCECFMYDILVGLASSEECERLCRKLGVTNCRVHCG [VEGF clone 2, phage clone, 5JI4 library, VEGF panning]
- S/N [1]: 30.9
- ELISA [1]: 6.00

Compound: PCECFMYGVYVGHSSSEACERLCRKLGVTNCRVHCG [VEGF clone 9, phage clone, 5JI4 library, VEGF panning]
- S/N [1]: 39.95
- ELISA [1]: 3.995

Compound: PCECHFXGVHVGRSSSEECERLCRKLGVTNCRVHCG [VEGF clone 12, phage clone, 5JI4 library, VEGF panning]
- S/N [1]: 15.0395
- ELISA [1]: 3.805

Compound: PCECIILNVVVGESSSEECERLCRKLGVTNCRVHCG [VEGF clone 4, phage clone, 5JI4 library, VEGF panning]
- S/N [1]: 2.9
- ELISA [1]: 4.32

Compound: PCECITKWSDWGFSSSEECERLCRKLGVTNCRVHCG [VEGF clone 24, phage clone, 5JI4 library, VEGF panning]
- S/N [1]: 9.024
- ELISA [1]: 0.767

Compound: PCECIXXDSFVGKSSSEECERLCRKLGVTNCRVHCG [VEGF clone 25, phage clone, 5JI4 library, VEGF panning]
- S/N [1]: 3.092
- ELISA [1]: 0.269

Compound: PCECLMYGHHVGSASSEECERLCRKLGVTNCRVHCG [VEGF clone 19, phage clone, 5JI4 library, VEGF panning]
- S/N [1]: 36.6559
- ELISA [1]: 3.409

Compound: PCECLMYRVXVGHSSSEACERLCRKLGVTNCRVHCG [VEGF clone 3, phage clone, 5JI4 library, VEGF panning]
- S/N [1]: 42.6
- ELISA [1]: 4.34

Compound: PCECMFHGVPVGFSSSEECERLCRKLGVTNCRVHCG [VEGF clone 8, phage clone, 5JI4 library, VEGF panning]
- S/N [1]: 37.2
- ELISA [1]: 4.06

Compound: PCECPRWWSHDGGYSSEECERLCRKLGVTNCRVHCG [VEGF clone 11, phage clone, 5JI4 library, VEGF panning]
- S/N [1]: 38.9
- ELISA [1]: 3.89

Compound: PCECQENTTFIIYSSSEECERLCRKLGVTNCRVHCG [CD28-1 clone 12, phage clone, 5JI4 library, CD28-1 panning]
- S/N [2]: 1.979
- ELISA [2]: 0.192

Compound: PCECQFYGTMVGWSSSEECERLCRKLGVTNCRVHCG [VEGF clone 20, phage clone, 5JI4 library, VEGF panning]
- S/N [1]: 37.3956
- ELISA [1]: 3.403

Compound: PCECVVLDTVVGKASSEECERLCRKLGVTNCRVHCG [VEGF clone 17, phage clone, 5JI4 library, VEGF panning]
- S/N [1]: 37.5957
- ELISA [1]: 3.534

Compound: PCECWFYDALVGWTSSEECERLCRKLGVTNCRVHCG [VEGF clone 7, phage clone, 5JI4 library, VEGF panning]
- S/N [1]: 41.3
- ELISA [1]: 4.13

Compound: PCECWMYHTNVGHGSSEECERLCRKLGVTNCRVHCG [VEGF clone 21, phage clone, 5JI4 library, VEGF panning]
- S/N [1]: 29.9279
- ELISA [1]: 3.322

Compound: PCECYFETTHVGFASSEECERLCRKLGVTNCRVHCG [VEGF clone 18, phage clone, 5JI4 library, VEGF panning]
- S/N [1]: 10.4498
- ELISA [1]: 3.438

Compound: PCECYFQGVNVGESSSEECERLCRKLGVTNCRVHCG [VEGF clone 16, phage clone, 5JI4 library, VEGF panning]
- S/N [1]: 40.618
- ELISA [1]: 3.615

Compound: PCECYFQXVKVGESSSEECERLCRKLGVTNCRVHCG [VEGF clone 6, phage clone, 5JI4 library, VEGF panning]
- S/N [1]: 32.5
- ELISA [1]: 4.23

Compound: PCECYFSNTMVGHSSSEECERLCRNLGVTNCRVHCG [VEGF clone 5, phage clone, 5JI4 library, VEGF panning]
- S/N [1]: 40.6
- ELISA [1]: 4.23

Compound: PCECYFYDIVVGFSSSEECERLCRKLGVTNCRVHCG [VEGF clone 1, phage clone, 5JI4 library, VEGF panning]
- S/N [1]: 58.3
- ELISA [1]: 6.00

Compound: PCECYIYNTGAGWGSSEECARLCRKLGVTNCRVHCG [VEGF clone 15, phage clone, 5JI4 library, VEGF panning]
- S/N [1]: 30.6033
- ELISA [1]: 3.703

Compound: PCECYLPKVMVGFSSSEECERLCRNLGVTNCRVHCG [VEGF clone 10, phage clone, 5JI4 library, VEGF panning]
- S/N [1]: 12.4652
- ELISA [1]: 3.939

Compound: PCECYMSNVNVGESSSEECERLCRKLGVTNCRVHCG [VEGF clone 22, phage clone, 5JI4 library, VEGF panning]
- S/N [1]: 29.6607
- ELISA [1]: 3.322

Compound: PCEFARQNVFIVHSSSEECERLCRTLGVTNCRVHCG [CD28-1 clone 8, phage clone, 5JI4 library, CD28-1 panning]
- S/N [2]: 1.6194
- ELISA [2]: 0.217

Compound: PCESIQDVWIIHDSSEECERLCRKLGVTNCRVHCG [CD28-1 clone 6, phage clone, 5JI4 library, CD28-1 panning]
- S/N [2]: 2.28
- ELISA [2]: 0.244

Compound: PCESQSMQHFIIYNSSEECERLCRKLGVTNCRVHCG [CD28-1 clone 1, phage clone, 5JI4 library, CD28-1 panning]
- S/N [2]: 4.839
- ELISA [2]: 0.542

Compound: PCEYQTWRVVIPDASSEECERLCRKLGVTNCRVHCG [CD28-1 clone 3, phage clone, 5JI4 library, CD28-1 panning]
- S/N [2]: 4.407
- ELISA [2]: 0.4
